Consider 15 molecules from PubChem BioAssay (NCI).

SMILES strings stand for the structures.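 Grown in 96-well plates, cells were treated for 48 hours with each compound at five concentrations. Insufficient inhibition: endpoint recorded as highest concentration tested. GI50 = concentration required for 50% inhibition of growth. TGI: total growth inhibition.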

Common to all, as to test: NCI tumour cell line growth inhibition, 48 h
In experiment [1] the test system is BT-549 breast.
The test system of experiment [2] is CCRF-CEM leukemia.
Experiment [3] deals with LOX IMVI melanoma.
For experiment [4], the system named is MCF7 breast.
Experiment [5] concerns MDA-MB-435.
Experiment [6] deals with MOLT-4 leukemia.
Experiment [7] relates to RPMI-8226 leukemia.
In experiment [8] the test system is SK-MEL-2 melanoma.
Experiment [9] concerns SK-MEL-28 melanoma.
For experiment [10], the system named is U251 CNS.

Consider `C=C1C(=O)O[C@H]2[C@H]1CC/C(COC(=O)NCc1ccc(Cn3c(=O)sn(-c4ccccc4)c3=O)cc1)=C\CC[C@@]1(C)O[C@@H]21`, for which the GI50 in experiment [1] was 2.14 µM; in [2], 0.833 µM; in experiment [3], 1.62 µM; in [4], 1.59 µM; in experiment [5], 2.07 µM; in [6], 2.2 µM. Also, the GI50 in experiment [7] was 2.03 µM; in experiment [8] it was 2.39 µM; in [9] it was 1.7 µM; in experiment [10], 2.37 µM. The TGI in [1] was 5 µM; in [2], above 100 µM; in experiment [3] it was 3.07 µM; in experiment [4], 3.55 µM; in experiment [5], 4.2 µM; in experiment [6], 7.09 µM. Further, the TGI in [7] turned out to be 6.26 µM; in experiment [8], 6.34 µM; in experiment [9] it was 3.41 µM; in [10], 5.28 µM.
`Cc1ccc(Sc2cc3c(oc2=O)-c2ccccc2OC3O)cc1` (centres undefined): the GI50 in [1] was 18.7 µM; in experiment [2] it was 6.73 µM; in [3], 18 µM; in [4], 35.9 µM; in experiment [5], 27.2 µM; in experiment [6] it was 13.3 µM. Moreover, the GI50 in experiment [7] was 23.2 µM; in [8], 22.1 µM; in experiment [9] it was 22.2 µM; in experiment [10] it was 21.1 µM. The TGI is 37.4 µM in experiment [1]; 78.5 µM in [2]; 40 µM in [3]; above 100 µM in [4]; 54.6 µM in experiment [5]; 34.2 µM in experiment [6]. Also, the TGI in [7] is 79.7 µM; in [8] it was 47.7 µM; in experiment [9], 57.9 µM; in experiment [10], 42.3 µM.
Take `CC(C)=CCCC(C)C1=C(O)C(=O)C(C)=CC1=O` (centres undefined): the TGI in [1] is 30.2 µM; in [2], above 20.5 µM; in experiment [3], 15.1 µM; in [4] it was 31.1 µM; in experiment [5], 43.5 µM; in [6] it was 5.12 µM. The TGI in experiment [7] is above 100 µM; in experiment [8] it was 34 µM; in experiment [9], above 42.4 µM; in experiment [10] it was above 56.1 µM.
Regarding `Cc1c([N+](=O)[O-])oc2ccc3ccccc3c12`, the TGI in experiment [1] was above 100 µM; in experiment [2] it was above 100 µM; in experiment [3] it was above 100 µM; in experiment [4], 93.7 µM; in experiment [5] it was above 100 µM; in experiment [6] it was above 100 µM. In addition, the TGI in experiment [7], in experiment [8], in experiment [9] and in experiment [10] was above 100 µM in each case.
`O=C(c1ccccc1)c1c(C(F)(F)F)n([O-])c2ccc(C(F)(F)F)cc2[n+]1=O`: the GI50 in experiment [1] is 0.125 µM; in experiment [2] it was 0.281 µM; in experiment [3] it was 0.0513 µM; in [4] it was 0.305 µM; in [5], 0.567 µM; in [6], 0.0902 µM. Moreover, the GI50 in experiment [7] was 0.286 µM; in experiment [8] it was 1.24 µM; in experiment [9], 0.507 µM; in experiment [10], 0.166 µM. The TGI is 0.269 µM in experiment [1]; 1.41 µM in [2]; 0.0954 µM in experiment [3]; 0.82 µM in experiment [4]; 1.28 µM in experiment [5]; 0.313 µM in experiment [6]. Besides, the TGI in experiment [7] worked out at 0.883 µM; in experiment [8], 2.96 µM; in experiment [9], 0.957 µM; in experiment [10], 0.305 µM.
On to `COc1ccc(Cn2cc3c(c2-c2cc(OC)c(OC)c(OC)c2)CCc2cnoc2-3)cc1`, for which the GI50 in [1] was 1.62 µM; in [2], 0.291 µM; in experiment [3], 0.813 µM; in [4], 0.163 µM; in experiment [5] it was 0.0404 µM; in [6], 0.468 µM. Moreover, the GI50 in [7] is 0.356 µM; in experiment [8] it was 3.24 µM; in [9] it was 0.517 µM; in [10], 0.393 µM. In addition, the TGI is above 100 µM in [1]; above 24.3 µM in experiment [2]; above 100 µM in experiment [3]; above 100 µM in experiment [4]; 0.208 µM in experiment [5]; above 100 µM in [6]. The TGI in [8], in experiment [9] and in experiment [10] was above 100 µM each time.
With `CCCCCCCCCCCCCCCC1=NC(C)(C)CN1C(C)C`, the GI50 was 5.12 µM in experiment [1]; 1.41 µM in experiment [2]; 1.45 µM in experiment [3]; 1.55 µM in [4]; 1.44 µM in [5]; 1.16 µM in experiment [6]. The GI50 was 1.04 µM in experiment [7], 1.63 µM in experiment [8], 1.64 µM in experiment [9] and 1.51 µM in experiment [10]. Also, the TGI worked out at 23.7 µM in experiment [1]; 3.47 µM in experiment [2]; 2.8 µM in experiment [3]; 3.01 µM in experiment [4]; 2.93 µM in experiment [5]; 2.73 µM in [6]. In addition, the TGI in experiment [7] stood at 2.82 µM; in [8] it was 3.07 µM; in experiment [9], 3 µM; in experiment [10], 2.84 µM.
In the case of `Cc1cc(I)cc(CN(C)CCCN2CCN(C)CC2)c1O`, the GI50 in [1] was 21 µM; in experiment [2], 45.7 µM; in experiment [3], 17.2 µM; in [4], 26 µM; in experiment [5] it was 14.4 µM; in [6], 21.7 µM. Besides, the GI50 in experiment [7] was 16.1 µM; in [8], 22.3 µM; in experiment [9], 17.2 µM; in [10], 30.9 µM. Moreover, the TGI was above 73.9 µM in experiment [1]; above 100 µM in [2]; 36.1 µM in experiment [3]; 82.7 µM in [4]; 31.4 µM in experiment [5]; above 63.8 µM in experiment [6]. Moreover, the TGI in experiment [7] was 45.2 µM; in experiment [8], 46.1 µM; in [9], 33 µM; in [10], above 100 µM.
As to `Cc1cc(Nc2cc(N)ncn2)c(=O)n2c1C(=O)NC21CCCCC1`, the GI50 in experiment [1] is 48.4 µM; in [2], above 100 µM; in experiment [3] it was above 100 µM; in [4], above 100 µM; in experiment [5] it was above 100 µM; in experiment [6], above 100 µM. In addition, the GI50 is above 100 µM in experiment [7], 58.2 µM in experiment [8], above 100 µM in experiment [9] and 83.7 µM in experiment [10]. In addition, the TGI in [1], in experiment [2], in experiment [3], in experiment [4], in experiment [5] and in experiment [6] was above 100 µM throughout. The TGI in experiment [7], in experiment [8], in [9] and in [10] was above 100 µM throughout.
Regarding `CC(O)c1cc(C(=O)N[C@@H](C)Cn2ccc(-c3ccc(C#N)c(Cl)c3)n2)n[nH]1` (some centres undefined), the GI50 in [1] is 19.7 µM; in experiment [2], 16.8 µM; in experiment [3], 87.2 µM; in [4] it was 30.7 µM; in experiment [5], 32.4 µM; in [6], 0.37 µM. Also, the GI50 was 15.3 µM in [7], 46.6 µM in experiment [8], 72.8 µM in experiment [9] and above 100 µM in experiment [10]. Also, the TGI in experiment [1] is 77.7 µM; in experiment [2] it was 39.9 µM; in experiment [3], above 100 µM; in experiment [4], above 100 µM; in experiment [5], above 100 µM; in [6] it was 5.15 µM. Also, the TGI in experiment [7] was 80.6 µM; in [8], above 100 µM; in experiment [9] it was above 100 µM; in [10], above 100 µM.
`COC(=O)C(C)NC(=O)c1ccccc1I(OS(=O)(=O)C(F)(F)F)c1ccccc1` (centres undefined): the GI50 in experiment [1] is 23 µM; in experiment [2] it was 20.3 µM; in experiment [3], 22.5 µM; in [4], 22.3 µM; in experiment [5] it was above 41.3 µM; in experiment [6], 42.3 µM. In addition, the GI50 in [7] was 3 µM; in experiment [8], 41.6 µM; in [9], 18.7 µM; in [10], 18.2 µM. Besides, the TGI is 57.3 µM in experiment [1]; 60.4 µM in experiment [2]; above 60.6 µM in [3]; above 65.5 µM in experiment [4]; above 57.1 µM in [5]; above 85.1 µM in experiment [6]. Besides, the TGI in experiment [7] is 25.8 µM; in experiment [8] it was above 100 µM; in experiment [9], 45.3 µM; in experiment [10] it was 38.5 µM.
For `CN(C)CCCn1c(-c2nonc2N)nc2cnccc21`, the GI50 in experiment [1], in [2], in experiment [3], in experiment [4], in experiment [5] and in experiment [6] was above 25 µM each time. Further, the GI50 in experiment [7], in [8], in experiment [9] and in [10] was above 25 µM in each case. Also, the TGI in experiment [1], in experiment [2], in [3], in [4], in experiment [5] and in experiment [6] was above 25 µM each time. The TGI in experiment [7], in experiment [8], in experiment [9] and in experiment [10] was above 25 µM each time.
With `C=CC(COC(c1ccccc1)(c1ccccc1)c1ccccc1)N(CC)CC` (centres undefined), the GI50 in [1] was 14.7 µM; in experiment [2], 3.76 µM; in [3], 4.73 µM; in experiment [4] it was 2.8 µM; in [5], 4.04 µM; in experiment [6] it was 3.02 µM. The GI50 in experiment [7] is 2.99 µM; in [8], 4.68 µM; in experiment [9], 3.59 µM; in experiment [10], 2.98 µM. The TGI is 30.3 µM in [1]; 14.8 µM in [2]; 18.8 µM in experiment [3]; 7.21 µM in [4]; 16.3 µM in experiment [5]; 11.6 µM in experiment [6]. The TGI in experiment [7] came to 7.8 µM; in [8], 13.9 µM; in experiment [9], 11.8 µM; in [10] it was 12 µM.
Consider `Oc1ccc(N=Nc2ccccn2)c(O)c1`, for which the GI50 in [1] was 0.628 µM; in experiment [2], 0.48 µM; in experiment [3], 0.365 µM; in experiment [4] it was 0.677 µM; in experiment [5], 0.835 µM; in [6], 0.42 µM. Besides, the GI50 is 0.863 µM in experiment [7], 7.44 µM in [8], 1.66 µM in [9] and 0.843 µM in experiment [10]. For the same molecule, the TGI in [1], in [2], in experiment [3], in experiment [4], in experiment [5] and in [6] was above 100 µM throughout. Moreover, the TGI in experiment [7], in experiment [8], in experiment [9] and in experiment [10] was above 100 µM in each case.
Regarding `CCN(Cc1c(Cl)cccc1Cl)c1ccc(CO)c(Cl)c1`, the GI50 in experiment [1] is 16.2 µM; in [2], 15 µM; in experiment [3] it was 16.9 µM; in experiment [4], 0.146 µM; in [5], 9.22 µM; in [6], 14.8 µM. For the same molecule, the GI50 in experiment [7] is 1.12 µM; in experiment [8], 0.795 µM; in experiment [9], 11.9 µM; in experiment [10], 0.372 µM. Further, the TGI in [1] came out at 30.4 µM; in experiment [2] it was 36.6 µM; in experiment [3] it was 32.6 µM; in [4], 13.4 µM; in [5] it was 22.4 µM; in experiment [6], 35.7 µM. The TGI in experiment [7] stood at 17.6 µM; in experiment [8], 13.4 µM; in experiment [9], 25.5 µM; in experiment [10], 15.3 µM.
